Key:
[1] = test system: BALB/c male mice; assay type: in vivo, mouse; conditions: relative index, non-administered control group = 1, 10 mg/kg B.W./day by gavage, 7 days
Protocol: Five-week-old BALB/c male mice (n=6) were fed for 1 week and then used in this experiment. A commercially-available feed was used, and the mice' access to the feed was unrestricted, and tap water was provided. γ-Glutamylcysteine was dissolved in sterilized physiological saline, and gavage administration was performed at 10 mg/kg B.W./day. The administration period was 7 days. During the administration period, the body weights were measured every day immediately before the administration to determine the dosage. There was no difference between the body weights of the different groups. On day 7 after the start of the test, a necropsy examination was performed. Anesthesia was performed by interperitoneal administration with a pentobarbital formulation. At laparotomy, blood was collected from the abdominal aorta. The small intestinal contents were also collected. Serum was collected from the blood, and the total IgA and total IgG concentrations were measured using an ELISA kit. The intestinal contents were diluted 10-fold with PBS and suspended sufficiently, and centrifugation was then performed to separate the […]. The total IgA concentration was measured by ELISA in the same way as in Example 1. In the table, γ-EC represents γ-glutamylcysteine. […] However, the amounts of serum IgA and serum IgG were found not to increase, and it was confirmed that the peptide was able to stimulate the immunoactivity in the intestinal mucosa.

[2] = test system: mouse spleen cells; assay: Antibody production by mouse spleen cells stimulated with LPS (ELISA of culture supernatant); assay type: cell-based; conditions: 5 μg LPS, cultured 5 days, versus phosphate buffer control, FIG. 1
Protocol: Six- to eight-week-old BALB mice (female) were fed for 1 week a commercially-available solid feed and provided with tap water. To evaluate the influence of γ-glutamylcysteine on antibody production, a culture system using mouse spleen cells was employed. The spleen cells were collected from the BALB-c mice (n=3), then washed and suspended in RPMI 1640 medium (10% FCS, 50 U/ml penicillin, 50 μg/ml streptomycin). The cells were adjusted so that there were 1×10^6 cells per 48-well culture plate, and then either γ-glutamylcysteine or glutathione (purchased from Sigma) each dissolved in a phosphate buffer, was added to the plates. A phosphate buffer was added to plates as a control. Then, the cells were stimulated with 5 μg of LPS (lipopolysaccharide, obtained from Sigma). […] The cells were then cultured in a CO2 incubator at 37° C. for 5 days, and the amounts of the antibodies in the supernatant were analyzed. The amounts of IgA and IgG were measured by the ELISA method. […] The reaction was stopped with 100 μl of 3 M NaOH/well, and the absorbance was measured at 405 nm. IgA was measured in accordance with the same method as for IgG except that a rat anti-mouse IgA antibody (BD Biosciences) was used as the immobilized antibody. […]

[3] = test system: mouse spleen cells; assay: Antibody production by mouse spleen cells stimulated with ConA (ELISA of culture supernatant); assay type: cell-based; conditions: 0.5 μg ConA, cultured 5 days, versus control, FIG. 3
Protocol: Six- to eight-week-old BALB mice (female) were fed for 1 week a commercially-available solid feed and provided with tap water. To evaluate the influence of γ-glutamylcysteine on antibody production, a culture system using mouse spleen cells was employed. The spleen cells were collected from the BALB-c mice (n=3), then washed and suspended in RPMI 1640 medium (10% FCS, 50 U/ml penicillin, 50 μg/ml streptomycin). The cells were adjusted so that there were 1×10^6 cells per 48-well culture plate, and then either γ-glutamylcysteine or glutathione (purchased from Sigma) each dissolved in a phosphate buffer, was added to the plates. A phosphate buffer was added to plates as a control. […] The cells were again adjusted so that there were 1×10^6 cells per 48-well culture plate, and then stimulated with 0.5 μg of ConA (concanavalin A) in the presence or absence of γ-glutamylcysteine or glutathione. The cells were then cultured in a CO2 incubator at 37° C. for 5 days, and the amounts of the antibodies in the supernatant were analyzed. The amounts of IgA and IgG were measured by the ELISA method. The method for measuring IgG is described below. […] The reaction was stopped with 100 μl of 3 M NaOH/well, and the absorbance was measured at 405 nm. IgA was measured in accordance with the same method as for IgG except that a rat anti-mouse IgA antibody (BD Biosciences) was used as the immobilized antibody. […]

SMILES: N[C@@H](CCC(=O)N[C@@H](CS)C(=O)O)C(=O)O [γ-glutamylcysteine, γ-Glutamylcysteine]
- Serum IgA [1]: 0.3
- Serum IgG [1]: 0.6
- Small intestine IgA ([1]; total IgA in small intestinal contents): 3.0
- amounts of IgA produced [2]: increase production of IgA as compared with glutathione
- amounts of IgA produced [3]: increase production of IgA as compared with glutathione

Source: patent publication US20110034397A1, “INTESTINAL IMMUNE SYSTEM STIMULATOR” (priority 2008, published 2011)
